Experimental data taken from patent publication US20260098008A1, “COVALENT, CHEMOGENETIC ACTIVATORS FOR K2P POTASSIUM CHANNELS AND USES THEREOF” (THE REGENTS OF THE UNIVERSITY OF CALIFORNIA, priority 2022, published 2026).
Substitutions are numbered along the chain they refer to.

Assays:
A286F TREK-1^CG* = biological target: T1, A286F TREK-1^CG* (Mus musculus, UniProt P97438, A301F/S146C); experiment: TEVC in Xenopus oocytes, attenuated channels; format: cell-based; conditions: 20 μM; sequential addition of ML335, CAT335, BL-1249; 0 mV
T1 construct: expressed in transfected cells; host or cells: Xenopus laevis oocytes injected with mRNA
T1 sequence (P97438 1-411 isoform P97438-2 S131C/A286F): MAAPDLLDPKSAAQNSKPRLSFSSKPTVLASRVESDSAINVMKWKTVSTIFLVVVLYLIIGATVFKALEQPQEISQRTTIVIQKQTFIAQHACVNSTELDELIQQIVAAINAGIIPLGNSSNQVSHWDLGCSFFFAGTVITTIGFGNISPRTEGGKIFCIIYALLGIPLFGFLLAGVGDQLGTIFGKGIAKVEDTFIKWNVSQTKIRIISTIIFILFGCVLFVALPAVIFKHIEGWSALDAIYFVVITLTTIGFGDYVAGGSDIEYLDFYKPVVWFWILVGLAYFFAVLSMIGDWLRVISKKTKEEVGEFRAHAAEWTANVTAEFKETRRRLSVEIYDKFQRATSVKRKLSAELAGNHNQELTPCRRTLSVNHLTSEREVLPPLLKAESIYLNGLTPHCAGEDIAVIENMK
Source text: (§1) Mouse K2P2.1 (TREK-1) (Genbank accession number: NP_034737.2), mouse K2P10.1 (TREK-2) (NM_001316665.1), mouse K2P4.1 (TRAAK) (NM_008431.3), human K2P4.1 (TRAAK) (NM_033310.2) and mouse K2P18.1(TRESK) (NM_207261.3) were used for this study. Point mutations were introduced by site-directed mutagenesis using custom primers and confirmed by sequencing before use. For studies using Xenopus oocytes, K2P channels were subcloned into a previously reported pGEMHE/pMO vector (46). For expression in HEK293 cells, mouse K2P2.1 (TREK-1) and mutants were expressed from a previously described pIRES2-EGFP vector in HEK293 cells (46,47). K2P2.1 (TREK-1) tandems were constructed by connecting the open reading frames for the individual subunits with a linker encoding the […] (SEQ ID NO: 19) sequence. Tandems used for HEK293 cells included an N-terminal HA tag ([…] (SEQ ID NO: 20)) on the first subunit.
Xenopus laevis oocytes were harvested according to UCSF IACUC Protocol AN129690 and digested using collagenase (Worthington Biochemical Corporation, #LS004183, 0.8-1.0 mg/mL) in Ca^21-free ND96 (96 mM NaCl, 2 mM KCl, 3.8 mM MgCl2, 5 mM HEPES pH 7.4) immediately post-harvest, as previously reported (31,33). Oocytes were maintained at 18° C. in ND96 (96 mM NaCl, 2 mM KCl, 1.8 mM CaCl2, 2 mM MgCl2, 5 mM HEPES pH 7.4) supplemented with antibiotics (100 units mL^−1 penicillin, 100 μg mL^−1 streptomycin, 50 μg mL^−1 gentimycin) and used for experiments within one week of harvest.
Defolliculated stage V-VI oocytes were microinjected with 0.5-36 ng mRNA and currents were recorded within 16-48 h hours of injection.
For recordings, oocytes were impaled with borosilicate recording microelectrodes (0.4-2.0 MΩ resistance) backfilled with 3 M KCl and were subjected to constant perfusion of ND96 at a rate of 3 ml min^−1. Recording solutions containing K2P activators were prepared immediately prior to use from DMSO stocks (20-100 mM), with final DMSO concentrations of 0.1%. Currents were evoked from a −80 mV holding potential followed by a 300 ms ramp from −150 mV to +50 mV. Data were recorded using a GeneClamp 500B amplifier (MDS Analytical Technologies) controlled by pCLAMP8 software (Molecular Devices), and digitized at 1 kHz using Digidata 1332 Å digitizer (MDS Analytical Technologies). For each recording, control solution (ND96) was perfused over a single oocyte until current was stable before switching to solutions containing the test compounds at various concentrations. Representative traces and dose response plots were generated in GraphPad Prism 9.

K2P2.1 (TREK-1) = biological target: T2, K2P2.1 (TREK-1) (Mus musculus, UniProt P97438); experiment: Whole-cell patch clamp in transfected HEK293 cells; format: cell-based; conditions: 20 μM; for Fold-activation (I activator/I control): whole-cell currents
T2 construct: expressed in transfected cells; host or cells: Xenopus laevis oocytes injected with mRNA (pGEMHE/pMO vector)
T2 sequence (P97438 1-411 isoform P97438-2): T1 sequence (P97438 1-411 isoform P97438-2 S131C/A286F) with C131S, F286A
Source text: as §1
50% confluent cells were co-transfected (in 35-mm diameter wells) with 10-100 ng of the K2P2.1 plasmid and 400 ng of an eGFP plasmid (for visualization) using LipofectAMINE 2000 (Invitrogen) for 24 h, after which the cells were either plated onto coverslips or the media exchanged with fresh media. Cells were plated onto Matrigel coated coverslips (BD Biosciences) 1-2 hours before experiments.
Whole-cell patch-clamp experiments with K2P2.1(TREK-1) and mutants were carried out 24-48 h after transfection. Acquisition and analysis for voltage-clamp experiments were performed using pCLAMP10 and an Axopatch 200B amplifier (Molecular Devices). Current-clamp experiments were acquired using an […] amplifier (Molecular Devices). Pipettes were pulled using a Flaming/Brown micropipette puller (P-97, Sutter Instruments) and flame-polished using a MF-830 microforge (Narishige). Electrode resistance after filling with pipette internal solution ranged from 2 to 5 MΩ. Currents were low-pass filtered at 2 kHz and sampled at 10 kHz. Pipette solution contained the following: 145 mM KCl, 3 mM MgCl2, 5 mM EGTA and 20 mM HEPES (pH 7.2 with KOH). Bath solution contained the following: 145 mM NaCl, 5 mM KCl, 1 mM CaCl2, 3 mM MgCl2 and 20 mM HEPES (pH 7.4 with NaOH). K2P2.1 currents were elicited by a 1 s ramp from −100 to +50 mV from a −80 mV holding potential. Current-clamp recordings were taken with no holding current (I=0). Only K2P2.1(TREK-1)^CG* whole-cell patches with basal currents between […] at 0 mV were used Criteria for A286F K2P2.1(TREK-1)^CG*. ML335 or CAT335 were applied at 20 μM in bath solution and were perfused at 3 ml min^−1 until potentiation stabilized (1-3 min). Data were analyzed using Clampfit 11 and GraphPad Prism 9.

Fold-activation (I activator/I control) (A286F TREK-1^CG*)	Reversibility of activation on washout (K2P2.1 (TREK-1))	Fold-activation (I activator/I control) (K2P2.1 (TREK-1)) [fold]	SMILES
53+5 fold	–	–	c1ccc(-c2nn[nH]n2)c(Nc2cccc3c2CCCC3)c1 [BL-1249, reference compound]
21±3 fold	fully reversible	1.9 ± 0.2	O=C(NCc1ccc(Cl)cc1Cl)c1ccc(N2C(=O)C=CC2=O)cc1 [CAT335]
–	–	6.2 ± 0.5	CS(=O)(=O)Nc1ccc(C(=O)NCc2ccc(Cl)cc2Cl)cc1 [ML335, reference compound]
